# Measured values: the NIST ThermoML archive (doi:10.1021/acs.jced.8b00005)
# “And” between values parts separate entries of the source, which are not always exact repeats. Equal entries are not always repeated. Numbers after ± are expanded uncertainties.
# Settings: Liquid, Ebulliometric method (Recirculating still)
structure (smiles),measurement,setting,value
CCO [ethanol],vapor or sublimation pressure,307.52 K,13.19 ± 0.3 kPa
same,vapor or sublimation pressure,309.89 K,15.05 ± 0.33 kPa
same,vapor or sublimation pressure,312.21 K,17.13 ± 0.37 kPa
same,vapor or sublimation pressure,315.24 K,20 ± 0.41 kPa
same,vapor or sublimation pressure,318.42 K,23.45 ± 0.47 kPa
same,vapor or sublimation pressure,320.31 K,25.72 ± 0.52 kPa
same,vapor or sublimation pressure,322.13 K,28.12 ± 0.57 kPa
same,vapor or sublimation pressure,324.1 K,30.85 ± 0.61 kPa
same,vapor or sublimation pressure,325.96 K,33.68 ± 0.67 kPa
same,vapor or sublimation pressure,327.52 K,36.2 ± 0.73 kPa
same,vapor or sublimation pressure,329.57 K,40 ± 1 kPa
same,vapor or sublimation pressure,329.58 K,40 ± 0.79 kPa
same,vapor or sublimation pressure,331.49 K,43.49 ± 0.85 kPa
same,vapor or sublimation pressure,333.45 K,47.62 ± 0.93 kPa
same,vapor or sublimation pressure,335.16 K,51.36 ± 0.99 kPa
same,vapor or sublimation pressure,336.76 K,55.12 ± 1.1 kPa
same,vapor or sublimation pressure,338.72 K,60.05 ± 1.1 kPa
same,vapor or sublimation pressure,338.73 K,60 ± 1 kPa
same,vapor or sublimation pressure,340.19 K,63.84 ± 1.2 kPa
same,vapor or sublimation pressure,341.5 K,67.56 ± 1.3 kPa
same,vapor or sublimation pressure,343.06 K,72.1 ± 1.3 kPa
same,vapor or sublimation pressure,344.37 K,75.99 ± 1.4 kPa
same,vapor or sublimation pressure,345.69 K,79.99 ± 1.5 kPa and 80 ± 2 kPa
same,vapor or sublimation pressure,347.1 K,84.65 ± 1.6 kPa
same,vapor or sublimation pressure,348.51 K,89.37 ± 1.6 kPa
same,vapor or sublimation pressure,349.83 K,94.48 ± 1.8 kPa
same,vapor or sublimation pressure,351.55 K,101.31 ± 1.9 kPa
same,vapor or sublimation pressure,351.65 K,101.3 ± 1.8 kPa
CC(=O)OC(C)C [1-methylethyl ethanoate],vapor or sublimation pressure,304.07 K,10.57 ± 0.2 kPa
same,vapor or sublimation pressure,306.28 K,11.58 ± 0.24 kPa
same,vapor or sublimation pressure,308.95 K,13.35 ± 0.28 kPa
same,vapor or sublimation pressure,312.53 K,15.79 ± 0.32 kPa
same,vapor or sublimation pressure,316.52 K,19 ± 0.36 kPa
same,vapor or sublimation pressure,317.77 K,20 ± 0.39 kPa
same,vapor or sublimation pressure,320.42 K,22.45 ± 0.43 kPa
same,vapor or sublimation pressure,323.45 K,25.6 ± 0.48 kPa
same,vapor or sublimation pressure,325.91 K,28.24 ± 0.53 kPa
same,vapor or sublimation pressure,328.97 K,31.94 ± 0.59 kPa
same,vapor or sublimation pressure,332.14 K,36.19 ± 0.66 kPa
same,vapor or sublimation pressure,334.75 K,39.98 ± 0.73 kPa and 40 ± 1 kPa
same,vapor or sublimation pressure,337.73 K,44.85 ± 0.81 kPa
same,vapor or sublimation pressure,340.95 K,50.51 ± 0.9 kPa
same,vapor or sublimation pressure,344.18 K,56.66 ± 0.98 kPa
same,vapor or sublimation pressure,345.94 K,60.03 ± 1.1 kPa and 60 ± 1 kPa
same,vapor or sublimation pressure,348.17 K,65.32 ± 1.2 kPa
same,vapor or sublimation pressure,350.35 K,70.47 ± 1.2 kPa
same,vapor or sublimation pressure,352.47 K,75.52 ± 1.3 kPa
same,vapor or sublimation pressure,354.29 K,79.97 ± 1.4 kPa and 80 ± 1 kPa
same,vapor or sublimation pressure,356.48 K,85.89 ± 1.4 kPa
same,vapor or sublimation pressure,358.2 K,90.5 ± 1.5 kPa
same,vapor or sublimation pressure,359.77 K,95.13 ± 1.6 kPa
same,vapor or sublimation pressure,361.79 K,101.26 ± 1.7 kPa and 101.3 ± 1.7 kPa
